Measurements as given in PubChem BioAssay (NCI).
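Method: 48-hour compound exposure of cells in 96-well plates, five concentrations, linear interpolation of endpoints. At the TGI there is no net growth.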

How the values were obtained:
Test in all cases: growth of human tumour cells (NCI), 48 h
786-0 renal = system: 786-0 renal
A498 renal = system: A498 renal
A549 NSCLC = system: A549 NSCLC
ACHN renal = system: ACHN renal
BT-549 breast = system: BT-549 breast
CAKI-1 renal = system: CAKI-1 renal
CCRF-CEM leukemia = system: CCRF-CEM leukemia
COLO 205 colon = system: COLO 205 colon
DU-145 prostate = system: DU-145 prostate
EKVX NSCLC = system: EKVX NSCLC
HCC-2998 colon = system: HCC-2998 colon
HCT-116 colon = system: HCT-116 colon
HCT-15 colon = system: HCT-15 colon
HL-60(TB) leukemia = system: HL-60(TB) leukemia
HOP-62 NSCLC = system: HOP-62 NSCLC
HOP-92 NSCLC = system: HOP-92 NSCLC
HS 578T breast = system: HS 578T breast
HT29 colon = system: HT29 colon
IGROV1 ovarian = system: IGROV1 ovarian
K-562 leukemia = system: K-562 leukemia
KM12 colon = system: KM12 colon
LOX IMVI melanoma = system: LOX IMVI melanoma
M14 melanoma = system: M14 melanoma
MALME-3M melanoma = system: MALME-3M melanoma
MCF7 breast = system: MCF7 breast
MDA-MB-231 breast = system: MDA-MB-231 breast
MDA-MB-435 = system: MDA-MB-435
MDA-N = system: MDA-N
MOLT-4 leukemia = system: MOLT-4 leukemia
NCI-H226 lung = system: NCI-H226 lung
NCI-H23 lung = system: NCI-H23 lung
NCI-H460 lung = system: NCI-H460 lung
NCI-H522 lung = system: NCI-H522 lung
NCI/ADR-RES ovarian = system: NCI/ADR-RES ovarian
OVCAR-3 ovarian = system: OVCAR-3 ovarian
OVCAR-4 ovarian = system: OVCAR-4 ovarian
OVCAR-5 ovarian = system: OVCAR-5 ovarian
OVCAR-8 ovarian = system: OVCAR-8 ovarian
PC-3 prostate = system: PC-3 prostate
RPMI-8226 leukemia = system: RPMI-8226 leukemia
RXF 393 renal = system: RXF 393 renal
SF-268 CNS = system: SF-268 CNS
SF-295 CNS = system: SF-295 CNS
SF-539 CNS = system: SF-539 CNS
SK-MEL-2 melanoma = system: SK-MEL-2 melanoma
SK-MEL-28 melanoma = system: SK-MEL-28 melanoma
SK-MEL-5 melanoma = system: SK-MEL-5 melanoma
SK-OV-3 ovarian = system: SK-OV-3 ovarian
SN12C renal = system: SN12C renal
SNB-19 CNS = system: SNB-19 CNS
SNB-75 CNS = system: SNB-75 CNS
SR leukemia = system: SR leukemia
SW-620 colon = system: SW-620 colon
T-47D breast = system: T-47D breast
TK-10 renal = system: TK-10 renal
U251 CNS = system: U251 CNS
UACC-257 melanoma = system: UACC-257 melanoma
UACC-62 melanoma = system: UACC-62 melanoma
UO-31 renal = system: UO-31 renal
DLD-1 colon = system: DLD-1 colon
DMS 273 small cell lung = system: DMS 273 small cell lung
HOP-18 NSCLC = system: HOP-18 NSCLC
LXFL 529 NSCLC = system: LXFL 529 NSCLC
M19-MEL melanoma = system: M19-MEL melanoma
SNB-78 CNS = system: SNB-78 CNS
KM20L2 colon = system: KM20L2 colon
XF 498 CNS = system: XF 498 CNS

Measured: TGI

C[C@@H](CC(=O)OCc1ccccc1)OC1OC(COC(=O)C(C)(C)C)C(OC(=O)C(C)(C)C)C(OC(=O)C(C)(C)C)C1OC(=O)C(C)(C)C (some centres undefined)
> 100 µM: 786-0 renal | A498 renal | A549 NSCLC | ACHN renal | BT-549 breast | CAKI-1 renal | CCRF-CEM leukemia | COLO 205 colon | DU-145 prostate | EKVX NSCLC | HCC-2998 colon | HCT-116 colon | HCT-15 colon | HL-60(TB) leukemia | HOP-62 NSCLC | HOP-92 NSCLC | HS 578T breast | HT29 colon | IGROV1 ovarian | K-562 leukemia | KM12 colon | LOX IMVI melanoma | M14 melanoma | MALME-3M melanoma | MCF7 breast | MDA-MB-231 breast | MDA-MB-435 | MDA-N | MOLT-4 leukemia | NCI-H226 lung | NCI-H23 lung | NCI-H460 lung | NCI-H522 lung | NCI/ADR-RES ovarian | OVCAR-3 ovarian | OVCAR-4 ovarian | OVCAR-5 ovarian | OVCAR-8 ovarian | PC-3 prostate | RPMI-8226 leukemia | RXF 393 renal | SF-268 CNS | SF-295 CNS | SF-539 CNS | SK-MEL-2 melanoma | SK-MEL-28 melanoma | SK-MEL-5 melanoma | SK-OV-3 ovarian | SN12C renal | SNB-19 CNS | SNB-75 CNS | SR leukemia | SW-620 colon | T-47D breast | TK-10 renal | U251 CNS | UACC-257 melanoma | UACC-62 melanoma | UO-31 renal

NC1=NC(Cn2nc(-c3ccccc3)c3ccccc3c2=O)=NNC(=O)N1
> 100 µM: 786-0 renal | A498 renal | A549 NSCLC | ACHN renal | CAKI-1 renal | CCRF-CEM leukemia | COLO 205 colon | DLD-1 colon | DMS 273 small cell lung | HCC-2998 colon | HCT-116 colon | HCT-15 colon | HOP-18 NSCLC | HOP-62 NSCLC | HOP-92 NSCLC | HT29 colon | IGROV1 ovarian | K-562 leukemia | KM12 colon | LXFL 529 NSCLC | M14 melanoma | M19-MEL melanoma | MALME-3M melanoma | MOLT-4 leukemia | NCI-H226 lung | NCI-H23 lung | NCI-H460 lung | NCI-H522 lung | OVCAR-3 ovarian | OVCAR-4 ovarian | OVCAR-5 ovarian | OVCAR-8 ovarian | RPMI-8226 leukemia | SF-268 CNS | SF-295 CNS | SF-539 CNS | SK-MEL-2 melanoma | SK-MEL-28 melanoma | SK-MEL-5 melanoma | SK-OV-3 ovarian | SN12C renal | SNB-19 CNS | SNB-75 CNS | SNB-78 CNS | SR leukemia | SW-620 colon | TK-10 renal | U251 CNS | UACC-257 melanoma | UACC-62 melanoma | UO-31 renal

O=C1c2ccccc2C(=O)c2c(NC3CCCCC3)ccc(Nc3ccc(S(=O)(=O)O)cc3)c21
> 100 µM: 786-0 renal | A498 renal | A549 NSCLC | ACHN renal | BT-549 breast | CAKI-1 renal | CCRF-CEM leukemia | DU-145 prostate | HCT-116 colon | HCT-15 colon | HOP-62 NSCLC | HOP-92 NSCLC | HS 578T breast | HT29 colon | IGROV1 ovarian | K-562 leukemia | KM12 colon | LOX IMVI melanoma | M14 melanoma | MDA-MB-435 | MDA-N | MOLT-4 leukemia | NCI-H226 lung | NCI-H23 lung | NCI-H460 lung | NCI/ADR-RES ovarian | OVCAR-3 ovarian | OVCAR-4 ovarian | OVCAR-5 ovarian | OVCAR-8 ovarian | RPMI-8226 leukemia | RXF 393 renal | SF-268 CNS | SF-295 CNS | SF-539 CNS | SK-MEL-28 melanoma | SK-MEL-5 melanoma | SK-OV-3 ovarian | SNB-19 CNS | SNB-75 CNS | SR leukemia | SW-620 colon | T-47D breast | TK-10 renal | UACC-62 melanoma | UO-31 renal
86.8 µM: MCF7 breast
88.7 µM: U251 CNS
60.5 µM: SN12C renal
53.1 µM: COLO 205 colon
52.5 µM: NCI-H522 lung
99.8 µM: HL-60(TB) leukemia | SK-MEL-2 melanoma
64.4 µM: EKVX NSCLC
71.1 µM: HCC-2998 colon
69.9 µM: MDA-MB-231 breast
83 µM: PC-3 prostate
63.7 µM: UACC-257 melanoma
58.7 µM: MALME-3M melanoma

O=C(c1ccc(Cl)cc1)C1OC12C(=O)Nc1c(Cl)cc(Cl)cc12 (centres undefined)
66.3 µM: CCRF-CEM leukemia
83.4 µM: SNB-75 CNS
87.8 µM: XF 498 CNS
65.2 µM: EKVX NSCLC
> 100 µM: 786-0 renal | A498 renal | A549 NSCLC | ACHN renal | DLD-1 colon | DMS 273 small cell lung | HCC-2998 colon | HCT-15 colon | HOP-18 NSCLC | HOP-62 NSCLC | HT29 colon | K-562 leukemia | KM12 colon | KM20L2 colon | LOX IMVI melanoma | MALME-3M melanoma | NCI-H226 lung | NCI-H23 lung | NCI-H460 lung | OVCAR-5 ovarian | OVCAR-8 ovarian | SF-268 CNS | SF-295 CNS | SF-539 CNS | SK-MEL-2 melanoma | SK-MEL-28 melanoma | SK-MEL-5 melanoma | SN12C renal | SNB-19 CNS | SW-620 colon | TK-10 renal | U251 CNS | UACC-257 melanoma | UO-31 renal
77.8 µM: OVCAR-3 ovarian
45.4 µM: RPMI-8226 leukemia
